In patent publication US8530489B2 (Vertex Pharmaceuticals Incorporated, priority 2006, dated 2013):

target: PLK1 (Homo sapiens, UniProt P53350); test: PLK1 Inhibition Assay I (radioactive-phosphate incorporation); type: biochemical; conditions: Ki(app); PLK1 Inhibition Assay I or II (table does not say which)
In short: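 Ki(app) values came from non-linear regression of initial rates after background subtraction, with phosphopeptide measured by phosphocellulose filter binding and scintillation counting. PLK1 at 2 nM was preincubated with compound (typically from 10 μM, 2-fold dilutions) for 10 min, then run 240 min at 25° C with 350 μM [γ-33P]ATP and 450 μM peptide substrate in HEPES pH 7.5 buffer.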

Chain of PLK1 (P53350 whole entry): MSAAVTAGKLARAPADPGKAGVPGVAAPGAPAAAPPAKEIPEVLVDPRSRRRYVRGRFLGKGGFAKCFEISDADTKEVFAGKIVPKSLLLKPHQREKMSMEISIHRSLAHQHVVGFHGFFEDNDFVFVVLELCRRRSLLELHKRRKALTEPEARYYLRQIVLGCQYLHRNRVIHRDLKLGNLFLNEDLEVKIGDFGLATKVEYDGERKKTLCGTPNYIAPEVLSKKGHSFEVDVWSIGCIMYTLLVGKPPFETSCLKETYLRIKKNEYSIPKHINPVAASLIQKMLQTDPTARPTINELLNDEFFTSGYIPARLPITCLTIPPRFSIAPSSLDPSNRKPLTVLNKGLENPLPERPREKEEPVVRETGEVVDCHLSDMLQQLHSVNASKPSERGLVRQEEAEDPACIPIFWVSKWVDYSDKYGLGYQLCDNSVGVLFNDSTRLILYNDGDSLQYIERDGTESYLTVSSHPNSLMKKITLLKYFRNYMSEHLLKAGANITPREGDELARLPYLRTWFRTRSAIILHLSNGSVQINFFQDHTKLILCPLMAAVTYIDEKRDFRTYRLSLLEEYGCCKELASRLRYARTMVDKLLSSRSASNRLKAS

Row | SMILES | Ki [nM]
1 | C[C@@H](Nc1ncc(C#N)c(-c2c[nH]c3ncc(C(F)(F)F)cc23)n1)C1CCN(C(=O)[C@@H](N)CO)CC1 [Compound I-239, 2-((R)-1-(1-((S)-2-amino-3-hydroxypropanoyl)piperidin-4-yl)ethylamino)-4-(5-(trifluoromethyl)-1H-pyrrolo[2,3-b]pyridin-3-yl)pyrimidine-5-carbonitrile] | < 3
2 | C[C@@H](Nc1ncc(C#N)c(-c2c[nH]c3ncc(C(F)(F)F)cc23)n1)C1CCN(C(=O)[C@H](N)CO)CC1 [Compound I-240, 2-((R)-1-(1-((R)-2-amino-3-hydroxypropanoyl)piperidin-4-yl)ethylamino)-4-(5-(trifluoromethyl)-1H-pyrrolo[2,3-b]pyridin-3-yl)pyrimidine-5-carbonitrile] | < 3
3 | CC(C)C[C@@H](N)C(=O)N1CCC([C@@H](C)Nc2ncc(C#N)c(-c3c[nH]c4ncc(C(F)(F)F)cc34)n2)CC1 [Compound I-241, 2-((R)-1-(1-((R)-2-amino-4-methylpentanoyl)piperidin-4-yl)ethylamino)-4-(5-(trifluoromethyl)-1H-pyrrolo[2,3-b]pyridin-3-yl)pyrimidine-5-carbonitrile] | 3 to 40
4 | C[C@@H](Nc1ncc(C#N)c(-c2c[nH]c3ncc(C(F)(F)F)cc23)n1)C1CCN(C(=O)[C@@H](N)[C@@H](C)O)CC1 [Compound I-242, 2-((R)-1-(1-((2S,3R)-2-amino-3-hydroxybutanoyl)piperidin-4-yl)ethylamino)-4-(5-(trifluoromethyl)-1H-pyrrolo[2,3-b]pyridin-3-yl)pyrimidine-5-carbonitrile] | < 3
5 | C[C@H](N)C(=O)N1CCC([C@@H](C)Nc2ncc(C#N)c(-c3c[nH]c4ncc(C(F)(F)F)cc34)n2)CC1 [Compound I-243, 2-((R)-1-(1-((S)-2-aminopropanoyl)piperidin-4-yl)ethylamino)-4-(5-(trifluoromethyl)-1H-pyrrolo[2,3-b]pyridin-3-yl)pyrimidine-5-carbonitrile] | < 3
6 | C[C@H](N)CC(=O)N1CCC([C@@H](C)Nc2ncc(C#N)c(-c3c[nH]c4ncc(C(F)(F)F)cc34)n2)CC1 [Compound I-244, 2-((R)-1-(1-((S)-3-aminobutanoyl)piperidin-4-yl)ethylamino)-4-(5-(trifluoromethyl)-1H-pyrrolo[2,3-b]pyridin-3-yl)pyrimidine-5-carbonitrile] | < 3
7 | C[C@@H](Nc1ncc(C#N)c(-c2c[nH]c3ncc(C(F)(F)F)cc23)n1)[C@H]1CC[C@@H](N2CCN(C)CC2)CC1 [Compound I-245, 2-((R)-1-((1s,4S)-4-(4-methylpiperazin-1-yl)cyclohexyl)ethylamino)-4-(5-(trifluoromethyl)-1H-pyrrolo[2,3-b]pyridin-3-yl)pyrimidine-5-carbonitrile] | > 40
8 | C[C@@H](Nc1ncc(C#N)c(-c2c[nH]c3ncc(C(F)(F)F)cc23)n1)C1CCN(C(=O)[C@@H]2CCC[C@@H]2N)CC1 [Compound I-246, 2-((R)-1-(1-((1R,2S)-2-aminocyclopentanecarbonyl)piperidin-4-yl)ethylamino)-4-(5-(trifluoromethyl)-1H-pyrrolo[2,3-b]pyridin-3-yl)pyrimidine-5-carbonitrile] | < 3
9 | CC(C)[C@@H](N)CC(=O)N1CCC([C@@H](C)Nc2ncc(C#N)c(-c3c[nH]c4ncc(C(F)(F)F)cc34)n2)CC1 [Compound I-247, 2-((R)-1-(1-((S)-3-amino-4-methylpentanoyl)piperidin-4-yl)ethylamino)-4-(5-(trifluoromethyl)-1H-pyrrolo[2,3-b]pyridin-3-yl)pyrimidine-5-carbonitrile] | < 3
10 | C[C@@H](Nc1ncc(C#N)c(-c2c[nH]c3ncc(C(F)(F)F)cc23)n1)C1CCN(C(=O)[C@H](N)c2ccccc2)CC1 [Compound I-248, 2-((R)-1-(1-((R)-2-amino-2-phenylacetyl)piperidin-4-yl)ethylamino)-4-(5-(trifluoromethyl)-1H-pyrrolo[2,3-b]pyridin-3-yl)pyrimidine-5-carbonitrile] | 3 to 40
11 | C[C@H](O)[C@@H](N)C(=O)N1CCC([C@@H](C)Nc2ncc(C#N)c(-c3c[nH]c4ncc(C(F)(F)F)cc34)n2)CC1 [Compound I-249, 2-((R)-1-(1-((2R,3S)-2-amino-3-hydroxybutanoyl)piperidin-4-yl)ethylamino)-4-(5-(trifluoromethyl)-1H-pyrrolo[2,3-b]pyridin-3-yl)pyrimidine-5-carbonitrile] | < 3
12 | C[C@@H](Nc1ncc(C#N)c(-c2c[nH]c3ncc(C(F)(F)F)cc23)n1)C1CCN(C(=O)[C@H](N)CC(N)=O)CC1 [Compound I-250, (3R)-3-amino-4-(4-((1R)-1-(5-cyano-4-(5-(trifluoromethyl)-1H-pyrrolo[2,3-b]pyridin-3-yl)pyrimidin-2-ylamino)ethyl)piperidin-1-yl)-4-oxobutanamide] | < 3
13 | C[C@@H](Nc1ncc(C#N)c(-c2c[nH]c3ncc(C(F)(F)F)cc23)n1)C1CCN(C(=O)[C@H](N)CC#N)CC1 [Compound I-251, 2-((R)-1-(1-((R)-2-amino-3-cyanopropanoyl)piperidin-4-yl)ethylamino)-4-(5-(trifluoromethyl)-1H-pyrrolo[2,3-b]pyridin-3-yl)pyrimidine-5-carbonitrile] | < 3
14 | C[C@@H](Nc1ncc(C#N)c(-c2c[nH]c3ncc(C(F)(F)F)cc23)n1)C1CCN(C(=O)[C@H](N)CCCN)CC1 [Compound I-252, 2-((R)-1-(1-((R)-2,5-diaminopentanoyl)piperidin-4-yl)ethylamino)-4-(5-(trifluoromethyl)-1H-pyrrolo[2,3-b]pyridin-3-yl)pyrimidine-5-carbonitrile] | 3 to 40
15 | C[C@@H](Nc1ncc(C#N)c(-c2c[nH]c3ncc(C(F)(F)F)cc23)n1)C1CCN(C(=O)[C@H]2C[C@@H](N)C2)CC1 [Compound I-253, 2-((R)-1-(1-((1s,3S)-3-aminocyclobutanecarbonyl)piperidin-4-yl)ethylamino)-4-(5-(trifluoromethyl)-1H-pyrrolo[2,3-b]pyridin-3-yl)pyrimidine-5-carbonitrile] | < 3
16 | C[C@@H](Nc1ncc(C#N)c(-c2c[nH]c3ncc(C(F)(F)F)cc23)n1)C1CCN(C(=O)[C@@H](N)CCCN)CC1 [Compound I-254, 2-((R)-1-(1-((S)-2,5-diaminopentanoyl)piperidin-4-yl)ethylamino)-4-(5-(trifluoromethyl)-1H-pyrrolo[2,3-b]pyridin-3-yl)pyrimidine-5-carbonitrile] | < 3

Now from value to compound:

Row | Ki [nM] | SMILES
17 | < 3 | C[C@@H](Nc1ncc(C#N)c(-c2c[nH]c3ncc(C(F)(F)F)cc23)n1)C1CCN(C(=O)[C@@H](N)CC#N)CC1 [Compound I-255, 2-((R)-1-(1-((S)-2-amino-3-cyanopropanoyl)piperidin-4-yl)ethylamino)-4-(5-(trifluoromethyl)-1H-pyrrolo[2,3-b]pyridin-3-yl)pyrimidine-5-carbonitrile]
18 | < 3 | CC(C)[C@@H](O)C(=O)N1CCC([C@@H](C)Nc2ncc(C#N)c(-c3c[nH]c4ncc(C(F)(F)F)cc34)n2)CC1 [Compound I-256, 2-((R)-1-(1-((R)-2-hydroxy-3-methylbutanoyl)piperidin-4-yl)ethylamino)-4-(5-(trifluoromethyl)-1H-pyrrolo[2,3-b]pyridin-3-yl)pyrimidine-5-carbonitrile]
19 | < 3 | C[C@@H](Nc1ncc(C#N)c(-c2c[nH]c3ncc(C(F)(F)F)cc23)n1)C1CCN(C(=O)C(O)CO)CC1 (stereo partly drawn) [Compound I-257, 2-((1R)-1-(1-(2,3-dihydroxypropanoyl)piperidin-4-yl)ethylamino)-4-(5-(trifluoromethyl)-1H-pyrrolo[2,3-b]pyridin-3-yl)pyrimidine-5-carbonitrile]
20 | < 3 | C[C@@H](Nc1ncc(C#N)c(-c2c[nH]c3ncc(C(F)(F)F)cc23)n1)C1CCN(C(=O)C(N)=O)CC1 [Compound I-258, 2-(4-((1R)-1-(5-cyano-4-(5-(trifluoromethyl)-1H-pyrrolo[2,3-b]pyridin-3-yl)pyrimidin-2-ylamino)ethyl)piperidin-1-yl)-2-oxoacetamide]
21 | < 3 | C[C@@H](Nc1ncc(C#N)c(-c2c[nH]c3ncc(C(F)(F)F)cc23)n1)C1CCN(C(=O)[C@H]2CCN2)CC1 [Compound I-259, 2-((R)-1-(1-((R)-azetidine-2-carbonyl)piperidin-4-yl)ethylamino)-4-(5-(trifluoromethyl)-1H-pyrrolo[2,3-b]pyridin-3-yl)pyrimidine-5-carbonitrile]
22 | < 3 | C[C@@H](Nc1ncc(C#N)c(-c2c[nH]c3ncc(C(F)(F)F)cc23)n1)C1CCN(C(=O)C(O)CN)CC1 (stereo partly drawn) [Compound I-260, 2-((1R)-1-(1-(3-amino-2-hydroxypropanoyl)piperidin-4-yl)ethylamino)-4-(5-(trifluoromethyl)-1H-pyrrolo[2,3-b]pyridin-3-yl)pyrimidine-5-carbonitrile]
23 | < 3 | C[C@@H](Nc1ncc(C#N)c(-c2c[nH]c3ncc(C(F)(F)F)cc23)n1)[C@H]1CC[C@H](N2CCN(C)CC2)CC1 [Compound I-261, 2-((R)-1-((1r,4R)-4-(4-methylpiperazin-1-yl)cyclohexyl)ethylamino)-4-(5-(trifluoromethyl)-1H-pyrrolo[2,3-b]pyridin-3-yl)pyrimidine-5-carbonitrile]
24 | < 3 | C[C@@H](Nc1ncc(C#N)c(-c2c[nH]c3ncc(C(F)(F)F)cc23)n1)C1CCN(C(=O)[C@H]2C[C@@H](O)CN2)CC1 [Compound I-262, 2-((R)-1-(1-((2R,4R)-4-hydroxypyrrolidine-2-carbonyl)piperidin-4-yl)ethylamino)-4-(5-(trifluoromethyl)-1H-pyrrolo[2,3-b]pyridin-3-yl)pyrimidine-5-carbonitrile]
25 | < 3 | C[C@@H](Nc1ncc(C#N)c(-c2c[nH]c3ncc(C(F)(F)F)cc23)n1)C1CCN(C(=O)[C@H]2C[C@H](O)CN2)CC1 [Compound I-263, 2-((R)-1-(1-((2R,4S)-4-hydroxypyrrolidine-2-carbonyl)piperidin-4-yl)ethylamino)-4-(5-(trifluoromethyl)-1H-pyrrolo[2,3-b]pyridin-3-yl)pyrimidine-5-carbonitrile]
